Data set [1] can be described thus: MTT tissue viability assay (ET-50 protocol) for skin irritancy. The note with it: human. As to the method:
(§1) Mitigation of skin irritancy induced by sodium dodecyl sulfate (SDS) surfactant dosed with the polymer of Example 56 is assessed in the Epiderm™ Human Tissue Model (EPI-200) bioassay conducted by MatTek Corporation, Ashland, Mass. The MatTek bioassay utilizes human derived epidermal keratinocytes (NHEK) which have been cultured to form a multilayered, highly differentiated model of the human epidermis.
(§2) The MTT tissue viability assay measures the NAD(P)H dependent microsomal enzyme reduction of MTT (and to a lesser extent, the succinate dehydrogenase reduction of MTT) after exposure to a treated skin culture test sample for various exposure times. The duration of exposure resulting in a 50% decrease in MTT conversion in test formulation treated EpiDerm™ cultures, relative to control cultures, is determined (ET-50).
(§3) A SDS surfactant/polymer test formulation is formulated from the components set forth in Table 10 and evaluated for irritancy potential using the MTT viability assay. Test samples containing neat SDS surfactant (no polymer) are formulated for comparative purposes.
(§4) Skin tissue culture inserts (Cat. No. EPI-200) are pre-incubated in the wells of 6-well plates containing 0.9 ml of MatTek assay medium (Cat. No. EPI-100-ASY) for 1 hr. at 37° C. in a humidified atmosphere of 5% CO2 in air. The 6-well plates containing the tissue culture inserts are removed from the incubator and the assay media is aspirated from the wells and replaced by an additional aliquot of 0.9 ml of pre-warmed (37° C.) assay media. For each exposure time wells are then dosed (2 repetitions) with 100 μl of the test formulations set forth in Table 10 (3 tissue culture wells are dosed with 100 μl ultra-pure water as a negative control for each of the test candidates). In addition, 100 μl of a positive control formulation (1% Triton X-100 in ultrapure water) is dosed into tissue culture wells (3 repetitions for each exposure time), as well as 3 repetitions of ultrapure water as a negative control. The exposure times of the test formulations, negative control and positive control are set forth below.
(§5) MTT assay plates are prepped by preparing a 24-well plate by adding 300 μl of MTT reagent solution to an appropriate number of wells to accommodate the test. The MTT reagent is utilized at a concentration of 1 mg/ml of MTT diluted in Dulbecco's Modified Eagle Medium (DMEM). The MTT/DMEM solution is centrifuged and decanted to remove any precipitate before use.
(§6) After exposure times of 60 (1 hr.), 120 (2 hrs.) and 210 (3.5 hrs.) minutes to the test solutions, the tissue cultures are removed from the incubator and thoroughly rinsed (2 times) with Dulbecco's phosphate buffered saline (DPBS) to remove the test material. The negative control is exposed for 4 hours and the positive control is exposed for time periods of 4, 6, 8, and 10 hours. Any remaining rinse media is decanted from the top of the tissue cultures. Each tissue culture insert is transferred to an appropriately labeled well of the 24-well plate containing the MTT reagent solution and placed back in the incubator. After 30 minutes reaction with the MTT reagent, the tissue cultures are removed from the incubator. Each tissue culture insert is removed from its well and the bottom is gently blotted with a lab tissue. The inserts are immersed into a labeled 24-well extraction plate containing 2 ml of isopropanol extractant solution. […]

Data set [2] concerns Epiderm™ Human Tissue Model (EPI-200). The description is as above. As to the method:
as §1, §2, §3, §4, §5, §6

Read-outs that look alike come from different tables or passages of the source.

As a reminder, the viability is the share of living cells, or the viability signal relative to a control. In data set [1], `CCCCCCCCCCCCOS(=O)(=O)[O-].[Na+]` [Neat Surfactant, sodium dodecyl sulfate] had a viability at 1 hr of 72%, a viability at 2 hr of 28% and a viability at 3.5 hr of 19.6%. For the same compound, the “ET-50 (exposure time which reduces tissue viability to 50%)” value in data set [2] (interpolated between exposure times that bracket 50% viability) was found to be 1.41 h.
In the case of Triton X-100 [1% Triton X-100], the “ET-50 (exposure time which reduces tissue viability to 50%)” value in data set [2] worked out at 5.93 h.
